Drawing on patent US12371454B2, “Cyclic peptide compound having Kras inhibitory action” (priority 2019, dated 2025), this text covers IC50 for 13 molecules.

SMILES strings stand for the structures. Starred links: 1 amine or outer side, 2 acyl side, 3 side chain; linkers in the order of their positions; H or OH if unused. Positions of bridges follow the written chain, without caps; N, C: chain ends. Non-standard residues stand in square brackets, D forms with d. Residues, ends and D or L forms follow the SMILES beside them. *: point of attachment. hPhe(3,5-F2-4-CF3) = N[C@@H](CCc1cc(F)c(C(F)(F)F)c(F)c1)C(=O)O; hPhe(3-Cl-4-CF3) = N[C@@H](CCc1ccc(C(F)(F)F)c(Cl)c1)C(=O)O; NMePhe(4-CF3) = CN[C@@H](Cc1ccc(C(F)(F)F)cc1)C(=O)O; Phe(3,5-Cl2) = N[C@@H](Cc1cc(Cl)cc(Cl)c1)C(=O)O; NMePhe(3-CN) = CN[C@@H](Cc1cccc(C#N)c1)C(=O)O; NMePhe(4-Cl) = CN[C@@H](Cc1ccc(Cl)cc1)C(=O)O; NMePhe(4-Me) = CN[C@@H](Cc1ccc(C)cc1)C(=O)O; NMedβ3hAla = C[C@H](CC(=O)[*:2])N(C)[*:1]; Phe(3-Cl) = N[C@@H](Cc1cccc(Cl)c1)C(=O)O; NMeGly(cPent) = CN[C@H](C(=O)O)C1CCCC1; Phe(3-I) = N[C@@H](Cc1cccc(I)c1)C(=O)O; NMeY = CN[C@@H](Cc1ccc(O)cc1)C(=O)O; NMeCha = CN[C@@H](CC1CCCCC1)C(=O)O; NMehLeu = CN[C@@H](CCC(C)C)C(=O)O; NMeChg = CN[C@H](C(=O)O)C1CCCCC1; NMeF = CN[C@@H](Cc1ccccc1)C(=O)O; NMeI = CC[C@H](C)[C@H](NC)C(=O)O; N(CH2CH2)2CF2 = FC1(F)CCN(*)CC1; NMeD = CN[C@@H](CC(=O)O)C(=O)O; Benzyl(4-Cl) = Clc1ccc(C*)cc1; NMeL = CN[C@@H](CC(C)C)C(=O)O; NMeV = CN[C@H](C(=O)O)C(C)C; Trifluoroethyl = FC(F)(F)C*; Azetidin(1-yl) = C1CN(*)C1; NMeS = CN[C@@H](CO)C(=O)O; NMeA = CN[C@@H](C)C(=O)O; NMeAib = CNC(C)(C)C(=O)O; Nle = CCCC[C@H](N)C(=O)O; Piperidide = C1CCN(*)CC1; Pra = C#CC[C@H](N)C(=O)O; Pyrrolidide = C1CCN(*)C1; Ac5c = NC1(C(=O)O)CCCC1; Aze = O=C(O)[C@@H]1CCN1; Aib = CC(C)(N)C(=O)O; Sar = CNCC(=O)O

The target in this assay is T1, Kras and SOS1 (biotin-tagged human Kras loaded with GDP, His-tagged human SOS1) (Homo sapiens, UniProt P01116, G12D).
T1 construct: made in house; host or cells: E. coli (stated for Kras only)
T1 sequence (P01116 1-188 isoform P01116-2 G12D): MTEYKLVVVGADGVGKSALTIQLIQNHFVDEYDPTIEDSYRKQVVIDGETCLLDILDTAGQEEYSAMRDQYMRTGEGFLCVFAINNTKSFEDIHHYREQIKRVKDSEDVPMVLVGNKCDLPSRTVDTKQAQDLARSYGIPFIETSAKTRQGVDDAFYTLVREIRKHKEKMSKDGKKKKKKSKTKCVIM
Nature of the assay: Protein-protein interaction inhibition between Kras and SOS1 (KrasGl2D-SOS PPI) using AlphaScreen. The conditions noted are these: AlphaScreen; biotin-tagged human Kras loaded with GDP, His-tagged human SOS1; read-out: KRAS G12D-SOS PPI IC50. The format is binding. Put shortly:
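Kras was produced in E. coli, purified, then loaded with GDP. It was paired via streptavidin acceptor beads with His-SOS1 held on nickel donor beads, and proximity signal at 520-620 nm was read after 680 nm illumination.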
(In general: In Alpha technology, singlet oxygen from a donor bead excites a nearby acceptor bead.)
As to `C#CC[C@@H]1NC(=O)[C@H](Cc2cccc(I)c2)NC(=O)CN(C)C(=O)[C@H](Cc2ccc(C(F)(F)F)cc2)N(C)C(=O)CN(C)C(=O)CN(C)C(=O)[C@H]([C@@H](C)CC)NC(=O)[C@H](CC(C)C)N(C)C(=O)C[C@@H](C(=O)N2CCCCC2)N(C)C(=O)[C@H](CC(C)C)NC(=O)C(C)(C)N(C)C1=O` [Compound 1361] ([NMeL]I[Sar][Sar][NMePhe(4-CF3)][Sar][Phe(3-I)][Pra][NMeAib]L[NMeD]-Piperidide; lactam N-11), the IC50 was 24 nM.
As for `CC[C@H](C)[C@@H]1NC(=O)[C@H](CC(C)C)N(C)C(=O)C[C@@H](C(=O)N2CCC2)N(C)C(=O)[C@H](C2CCCC2)N(C)C(=O)C2(CCCC2)NC(=O)[C@@H]2CCCN2C(=O)[C@H](CCc2ccc(C(F)(F)F)c(Cl)c2)NC(=O)CN(C)C(=O)[C@H](CC2CCCCC2)N(C)C(=O)[C@@H]2CCN2C(=O)[C@H](C)N(C)C1=O` [Compound 515] ([NMeL]I[NMeA][Aze][NMeCha][Sar][hPhe(3-Cl-4-CF3)]P[Ac5c][NMeGly(cPent)][NMeD]-{Azetidin(1-yl)}; lactam N-11), the figure is 0.55 nM; as for `CC[C@H](C)[C@@H]1NC(=O)[C@H](CC(C)C)N(C)C(=O)C[C@@H](C(=O)N2CCCCC2)N(C)C(=O)[C@H](C(C)C)N(C)C(=O)C(C)(C)NC(=O)[C@H](CC(=O)N2CCC(F)(F)CC2)N(C)C(=O)[C@H](CCc2ccc(C(F)(F)F)c(Cl)c2)NC(=O)CN(C)C(=O)[C@H](CC2CCCCC2)N(C)C(=O)CN(C)C(=O)CN(C)C1=O` [Compound 463] ([NMeL]I[Sar][Sar][NMeCha][Sar][hPhe(3-Cl-4-CF3)][NMeD](N(CH2CH2)2CF2)[Aib][NMeV][NMeD]-Piperidide; lactam N-11), 4.4 nM; as for `CC[C@H](C)[C@@H]1NC(=O)[C@H](C)N(C)C(=O)C[C@@H](C(=O)N2CCCCC2)N(C)C(=O)[C@H](C2CCCCC2)N(C)C(=O)C2(CCCC2)NC(=O)[C@@H]2CCCN2C(=O)[C@H](COCc2ccc(Cl)cc2)NC(=O)CN(C)C(=O)[C@H](CC2CCCCC2)N(C)C(=O)CN(C)C(=O)CN(C)C1=O` [Compound 2044] ([NMeA]I[Sar][Sar][NMeCha][Sar]S(Benzyl(4-Cl))P[Ac5c][NMeChg][NMeD]-Piperidide; lactam N-11), 7.9 nM.
As for `CCCC[C@@H]1NC(=O)[C@H](Cc2cc(Cl)cc(Cl)c2)NC(=O)CN(C)C(=O)[C@H](Cc2ccc(Cl)cc2)N(C)C(=O)CN(C)C(=O)CN(C)C(=O)[C@H]([C@@H](C)CC)NC(=O)[C@H](CC(C)C)N(C)C(=O)C[C@@H](C(=O)N2CCCCC2)N(C)C(=O)[C@H](CC(C)C)NC(=O)C(C)(C)N(C)C1=O` [Compound 431] ([NMeL]I[Sar][Sar][NMePhe(4-Cl)][Sar][Phe(3,5-Cl2)][Nle][NMeAib]L[NMeD]-Piperidide; lactam N-11), the 50% inhibitory concentration (IC50) came to 250 nM.
For the molecule `CC(C)C[C@H]1C(=O)N[C@@H](C)C(=O)N(C)CC(=O)N(C)CC(=O)N(C)[C@@H](CC2CCCCC2)C(=O)N(C)CC(=O)N[C@@H](CCc2ccc(C(F)(F)F)c(Cl)c2)C(=O)N2CCC[C@H]2C(=O)NC2(CCCC2)C(=O)N(C)[C@@H](C2CCCCC2)C(=O)N(C)[C@H](C(=O)N2CCCCC2)CC(=O)N1C` [Compound 1802] ([NMeL]A[Sar][Sar][NMeCha][Sar][hPhe(3-Cl-4-CF3)]P[Ac5c][NMeChg][NMeD]-Piperidide; lactam N-11), the IC50 was found to be 21 nM.
As for `CC[C@H](C)[C@@H]1NC(=O)[C@H](CC(C)C)N(C)C(=O)C[C@@H](C(=O)N2CCCC2)N(C)C(=O)[C@H](C2CCCC2)N(C)C(=O)C2(CCCC2)NC(=O)[C@@H]2CCCN2C(=O)[C@H](CCc2cc(F)c(C(F)(F)F)c(F)c2)NC(=O)CN(C)C(=O)[C@H](CC2CCCCC2)N(C)C(=O)CN(C)C(=O)CN(C)C1=O` [Compound 1342] ([NMeL]I[Sar][Sar][NMeCha][Sar][hPhe(3,5-F2-4-CF3)]P[Ac5c][NMeGly(cPent)][NMeD]-Pyrrolidide; lactam N-11), the figure is 0.53 nM; as for `CC[C@H](C)[C@@H]1NC(=O)[C@H](CC(C)C)N(C)C(=O)C[C@@H](C)N(C)C(=O)[C@H](CCC(C)C)N(C)C(=O)C2(CCCC2)NC(=O)[C@@H]2CCCN2C(=O)[C@H](CCc2ccc(C(F)(F)F)c(Cl)c2)NC(=O)CN(C)C(=O)[C@H](CC2CCCCC2)N(C)C(=O)CN(C)C(=O)CN(C)C1=O` [Compound 22] (cyclo([Ac5c][NMehLeu][NMedβ3hAla][NMeL]I[Sar][Sar][NMeCha][Sar][hPhe(3-Cl-4-CF3)]P)), 110 nM; as for `CC[C@H](C)[C@@H]1NC(=O)[C@H](CC(C)C)N(C)C(=O)C[C@@H](C(=O)N2CCCCC2)N(C)C(=O)[C@H](C(C)C)N(C)C(=O)C2(CCCC2)NC(=O)[C@@H]2CCCN2C(=O)[C@H](CCc2ccc(C(F)(F)F)c(Cl)c2)NC(=O)CN(C)C(=O)[C@H](Cc2cccc(C#N)c2)N(C)C(=O)CN(C)C(=O)CN(C)C1=O` [Compound 710] ([NMeL]I[Sar][Sar][NMePhe(3-CN)][Sar][hPhe(3-Cl-4-CF3)]P[Ac5c][NMeV][NMeD]-Piperidide; lactam N-11), 4.4 nM.
With `CC[C@H](C)[C@@H]1NC(=O)[C@H](C)N(C)C(=O)C[C@@H](C(=O)N2CCCC2)NC(=O)[C@H](C(C)C)N(C)C(=O)[C@H](Cc2ccccc2)N(C)C(=O)[C@H](C)NC(=O)[C@H](Cc2cccc(Cl)c2)NC(=O)CN(C)C(=O)[C@H](Cc2ccc(Cl)cc2)N(C)C(=O)CN(C)C(=O)CN(C)C1=O` [Compound 612] ([NMeA]I[Sar][Sar][NMePhe(4-Cl)][Sar][Phe(3-Cl)]A[NMeF][NMeV]D-Pyrrolidide; lactam N-11), the IC50 is 120 nM.
In the case of `CC[C@H](C)[C@@H]1NC(=O)[C@H](C)N(C)C(=O)C[C@@H](C(=O)N(C)C)N(C)C(=O)[C@H]([C@@H](C)CC)N(C)C(=O)C2(CCCC2)NC(=O)[C@H](Cc2ccc(OC)cc2)N(C)C(=O)[C@H](CCc2ccc(C(F)(F)F)c(Cl)c2)NC(=O)CN(C)C(=O)[C@H](Cc2ccc(C)cc2)N(C)C(=O)[C@@H]2CCN2C(=O)[C@H](C)N(C)C1=O` [Compound 1903] ([NMeA]I[NMeA][Aze][NMePhe(4-Me)][Sar][hPhe(3-Cl-4-CF3)][NMeY](Me)[Ac5c][NMeI][NMeD]-NMe2; lactam N-11), the IC50 is 4 nM.
As for `CC[C@H](C)[C@@H]1NC(=O)[C@H](CC(C)C)N(C)C(=O)C[C@@H](C)N(C)C(=O)[C@H](CC(C)C)NC(=O)C(C)(C)N(C)C(=O)[C@H](CC(C)C)NC(=O)[C@H](CCc2ccc(C(F)(F)F)c(Cl)c2)NC(=O)CN(C)C(=O)[C@H](Cc2ccc(C)cc2)N(C)C(=O)[C@@H]2CCN2C(=O)[C@H](C)N(C)C1=O` [Compound 1379] (cyclo([Aze][NMePhe(4-Me)][Sar][hPhe(3-Cl-4-CF3)]L[NMeAib]L[NMedβ3hAla][NMeL]I[NMeA])), the figure is 64 nM.
As for `CC[C@H](C)[C@@H]1NC(=O)[C@H](CC(C)C)N(C)C(=O)C[C@@H](C(=O)N2CCCCC2)N(C)C(=O)[C@H](COCC(F)(F)F)N(C)C(=O)C2(CCCC2)NC(=O)[C@@H]2CCCN2C(=O)[C@H](CCc2ccc(C(F)(F)F)c(Cl)c2)NC(=O)CN(C)C(=O)[C@H](CC2CCCCC2)N(C)C(=O)CN(C)C(=O)CN(C)C1=O` [Compound 208] ([NMeL]I[Sar][Sar][NMeCha][Sar][hPhe(3-Cl-4-CF3)]P[Ac5c][NMeS](Trifluoroethyl)[NMeD]-Piperidide; lactam N-11), the figure is 120 nM.

Usually IC50 stands for the concentration that gives 50% inhibition.
